Patent publication US8859535B2, “Hydroxy substituted isoquinolinone derivatives” (Novartis AG, priority 2011, dated 2014)

The molecules below were run against T1, human MDM2 protein (amino acids 2-188) (Homo sapiens, UniProt Q00987) (assay: p53-MDM2 TR-FRET assay, modified (p53-MDM2 Assay 2)). Details: 0.1 nM MDM2, 0.1 nM Europium labeled streptavidin; read-out: IC50 (nM) of p53-Hdm2 inhibition (TR-FRET) Assay 2.
T1 construct: human MDM2 protein (amino acids 2-188); made in house
Type: binding
Description: Time Resolved Fluorescence Energy Transfer (TR-FRET) Assay
The inhibition of p53-MDM2 and p53-MDM4 interactions is measured by time resolved fluorescence energy transfer (TR-FRET). Fluorescence energy transfer (or Foerster resonance energy transfer) describes an energy transfer between donor and acceptor fluorescent molecules. For this assay, human MDM2 protein (amino acids 2-188) and human MDM4 protein (amino acids 2-185), tagged with a C-terminal biotin moiety, are used in combination with a Europium labeled streptavidin (Perkin Elmer, Inc., Waltham, Mass., USA) serving as the donor fluorophore. The p53 derived, Cy5 labeled peptide Cy5-TFSDLWKLL (p53 aa18-26) is the energy acceptor. Upon excitation of the donor molecule at 340 nm, binding interaction between MDM2 or MDM4 and the p53 peptide induces energy transfer and enhanced response at the acceptor emission wavelength at 665 nm. Disruption of the formation of the p53-MDM2 or p53-MDM4 complex due to an inhibitor molecule binding to the p53 binding site of MDM2 or MDM4 results in increased donor emission at 620 nm. The ratiometric FRET assay readout is calculated from the raw data of the two distinct fluorescence signals measured in time resolved mode (fluorescence 665 nm/fluorescence 620 nm×1000).
After addition of 1.25 nM MDM2-biotinylated or 2.5 nM MDM4-biotinylated (internal preparations), and 0.625 nM Europium labeled streptavidin (Perkin Elmer), the solution is pre-incubated for 15 minutes at room temperature, then 10 nM Cy5-p53 peptide (internal preparation) is added before an incubation at room temperature for 15 minutes prior to reading the plate. For measurement of samples, a Victor II microplate reader (Perkin Elmer) is used with the following settings: Excitation 340 nm, Emission Donor 620 nm and Emission Acceptor 665 nm. IC50 values are calculated by curve fitting using XLfit. If not specified, reagents are purchased from Sigma-Aldrich Chemie GmBH, Buchs, Switzerland.
This assay was used to evaluate compounds displaying inhibition of p53-MDM2 interaction and p53-MDM4 interaction at IC50s of 0.005 to 50 μM (p53-MDM2 Assay 1 and p53-MDM4 Assay 1, respectively). For selected compounds displaying IC50s between […] on MDM2, a slightly modified assay is used with the following adaptations: 0.1 nM MDM2, 0.1 nM Europium labeled streptavidin and Tecan genios Pro is used as a microplate reader for the fluorescence measurements (p53-MDM2 Assay 2).

T1 sequence (Q00987 2-188): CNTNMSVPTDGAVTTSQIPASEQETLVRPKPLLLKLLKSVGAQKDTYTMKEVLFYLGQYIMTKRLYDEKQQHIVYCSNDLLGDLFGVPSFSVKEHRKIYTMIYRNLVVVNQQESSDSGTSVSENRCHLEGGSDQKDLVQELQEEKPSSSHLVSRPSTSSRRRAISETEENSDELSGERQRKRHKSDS

IC50 | Compound
2.25 nM | COc1cc2c(cc1OC(C)C)[C@H](c1ccc(Cl)cc1)N(c1ccc(C(C)(O)[C@H]3CCCNC3)cc1)C(=O)C2 (stereo partly drawn) [Example 180, (S)-1-(4-Chloro-phenyl)-2-[4-((S)-1-hydroxy-1-piperidin-3-yl-ethyl)-phenyl]-7-isopropoxy-6-methoxy-1,4-dihydro-2H-isoquinolin-3-one]
0.935 nM | COc1cc2c(cc1OC(C)C)[C@H](c1ccc(Cl)cc1)N(c1ccc([C@@](C)(O)C3CCN(C4COC4)CC3)cc1)C(=O)C2 (single isomer, unassigned) [Example 127]
98 nM | COc1cc2c(cc1OC(C)C)[C@H](c1ccc(Cl)cc1)N(c1ccc([C@](C)(O)C3CC4CCCC(C3)S4(=O)=O)cc1)C(=O)C2 (stereo partly drawn) [Example 176, (S)-1-(4-Chloro-phenyl)-2-{4-[(R)-1-(9,9-dioxo-9-thia-bicyclo[3.3.1]non-3-yl)-1-hydroxy-ethyl]-phenyl}-7-isopropoxy-6-methoxy-1,4-dihydro-2H-isoquinolin-3-one]
99.8 nM | COc1cc2c(cc1OC(C)C)[C@H](c1ccc(Cl)cc1)N(c1ccc([C@](C)(O)C3CCN(C(=O)COC(C)=O)CC3)cc1)C(=O)C2 (single isomer, unassigned) [Example 129]
0.746 nM | COc1cc2c(cc1OC(C)C)[C@H](c1ccc(Cl)cc1)N(c1ccc([C@@](C)(O)C3CCN(C=O)CC3)cc1)C(=O)C2 (single isomer, unassigned) [Example 125]
4.43 nM | [2H]C([2H])([2H])Oc1cc2c(cc1OC(C)C)[C@H](c1ccc(Cl)cc1)N(c1ccc(C(C)(O)C3CCS(=O)(=O)CC3)cc1)C(=O)C2 (mixture of isomers) [Example 150, (S)-1-(4-Chloro-phenyl)-2-{4-[1-(1,1-dioxo-hexahydro-1-thiopyran-4-yl)-1-hydroxy-ethyl]-phenyl}-7-isopropoxy-6-d^3-methoxy-1,4-dihydro-2H-isoquinolin-3-one]
1.59 nM | COc1cc2c(cc1OC(C)C)[C@H](c1ccc(Cl)cc1)N(c1ccc(C(C)(O)C34CCC(CC3)OC4)cc1)C(=O)C2 (stereo partly drawn) [Example 178, (S)-1-(4-Chloro-phenyl)-2-{4-[1-hydroxy-1-(2-oxa-bicyclo[2.2.2]oct-4-yl)-ethyl]-phenyl}-7-isopropoxy-6-methoxy-1,4-dihydro-2H-isoquinolin-3-one]
2.72 nM | COc1cc2c(cc1OC(C)C)[C@H](c1ccc(Cl)cc1)N(c1ccc([C@@](C)(O)C34CCC(CC3)C4)cc1)C(=O)C2 (single isomer, unassigned) [Example 139]
4.89 nM | COc1cc2c(cc1OC(C)C)[C@H](c1ccc(Cl)cc1)N(c1ccc(C(C)(O)C3C4COCC3CN(C=O)C4)cc1)C(=O)C2 (stereo partly drawn) [Example 157, 9-(1-{4-[(S)-1-(4-Chloro-phenyl)-7-isopropoxy-6-methoxy-3-oxo-3,4-dihydro-1H-isoquinolin-2-yl]-phenyl}-1-hydroxy-ethyl)-3-oxa-7-aza-bicyclo[3.3.1]nonane-7-carbaldehyde]
12 nM | CC(C)Oc1cc2c(cc1OC(F)F)CC(=O)N(c1ccc(C(C)(O)C3CCOCC3)cc1)C2c1ccc(Cl)cc1 (stereo not drawn) [Example 165, 1-(4-Chloro-phenyl)-6-difluoromethoxy-2-{4-[1-hydroxy-1-(tetrahydro-pyran-4-yl)-ethyl]-phenyl}-7-isopropoxy-1,4-dihydro-2H-isoquinolin-3-one]
4.2 nM | COc1cc2c(cc1OC(C)C)[C@H](c1ccc(Cl)cc1)N(c1ccc(C(C)(O)C3CC4CCCC(C3)N4C(=O)CO)cc1)C(=O)C2 (stereo partly drawn) [Example 123, (S)-1-(4-Chloro-phenyl)-2-(4-{1-hydroxy-1-[9-(2-hydroxy-acetyl)-9-aza-bicyclo[3.3.1]non-3-yl]-ethyl}-phenyl)-7-isopropoxy-6-methoxy-1,4-dihydro-2H-isoquinolin-3-one]
78.7 nM | [2H]C([2H])([2H])Oc1cc2c(cc1OC(C)C)[C@H](c1ccc(Cl)cc1)N(c1ccc([C@](C)(O)C3CCN(C=O)CC3)cc1)C(=O)C2 (single isomer, unassigned) [Example 154]
41.9 nM | COc1cc2c(cc1OC(C)C)[C@H](c1ccc(Cl)cc1)N(c1ccc([C@](C)(O)C3CC4CCC(C3)O4)cc1)C(=O)C2 (single isomer, unassigned) [Example 160]
509 nM | COc1cc2c(cc1OC(C)C)[C@H](c1ccc(Cl)cc1)N(c1ccc([C@](C)(O)C3CC(C)(C)OC(C)(C)C3)cc1)C(=O)C2 (single isomer, unassigned) [Example 164]
3.44 nM | COc1cc2c(cc1OC(C)C)[C@H](c1ccc(Cl)cc1)N(c1ccc(C(C)(O)C3CC4CCCC(C3)N4C(=O)COC(C)=O)cc1)C(=O)C2 (stereo partly drawn) [Example 121, Acetic acid 2-[3-(1-{4-[(S)-1-(4-chloro-phenyl)-7-isopropoxy-6-methoxy-3-oxo-3,4-dihydro-1H-isoquinolin-2-yl]-phenyl}-1-hydroxy-ethyl)-9-aza-bicyclo[3.3.1]non-9-yl]-2-oxo-ethyl ester]
8.78 nM | COc1cc2c(cc1OC(C)C)[C@H](c1ccc(Cl)cc1)N(c1ccc(C(C)(O)[C@H]3CCCN(C4COC4)C3)cc1)C(=O)C2 (stereo partly drawn) [Example 183, (S)-1-(4-Chloro-phenyl)-2-{4-[1-hydroxy-1-((S)-1-oxetan-3-yl-piperidin-3-yl)-ethyl]-phenyl}-7-isopropoxy-6-methoxy-1,4-dihydro-2H-isoquinolin-3-one]
1.23 nM | [2H]C([2H])([2H])Oc1cc2c(cc1OC(C)C)[C@H](c1ccc(Cl)cc1)N(c1ccc([C@@](C)(O)C3CCN(C=O)CC3)cc1)C(=O)C2 (single isomer, unassigned) [Example 155]
1.26 nM | COc1cc2c(cc1OC(C)C)[C@H](c1ccc(Cl)cc1)N(c1ccc([C@@](C)(O)C3CC(C)(C)OC(C)(C)C3)cc1)C(=O)C2 (single isomer, unassigned) [Example 163]
4.67 nM | COc1cc2c(cc1OC(C)C)[C@H](c1ccc(Cl)cc1)N(c1ccc(C(C)(O)C3CC4CCCC(C3)N4C3COC3)cc1)C(=O)C2 (stereo partly drawn) [Example 120, (S)-1-(4-Chloro-phenyl)-2-{4-[1-hydroxy-1-(9-oxetan-3-yl-9-aza-bicyclo[3.3.1]non-3-yl)-ethyl]-phenyl}-7-isopropoxy-6-methoxy-1,4-dihydro-2H-isoquinolin-3-one]
152 nM | [2H]C([2H])([2H])Oc1cc2c(cc1OC(C)C)[C@H](c1ccc(Cl)cc1)N(c1ccc([C@](C)(O)C3CCS(=O)(=O)CC3)cc1)C(=O)C2 (single isomer, unassigned) [Example 152]
1.47 nM | CNC(=O)N1C2CCCC1CC(C(C)(O)c1ccc(N3C(=O)Cc4cc(OC)c(OC(C)C)cc4[C@@H]3c3ccc(Cl)cc3)cc1)C2 (stereo partly drawn) [Example 119, 3-(1-{4-[(S)-1-(4-Chloro-phenyl)-7-isopropoxy-6-methoxy-3-oxo-3,4-dihydro-1H-isoquinolin-2-yl]-phenyl}-1-hydroxy-ethyl)-9-aza-bicyclo[3.3.1]nonane-9-carboxylic acid methylamide]
1.34 nM | COc1cc2c(cc1OC(C)C)[C@H](c1ccc(Cl)cc1)N(c1ccc([C@@](C)(O)C3CCN(C(=O)COC(C)=O)CC3)cc1)C(=O)C2 (single isomer, unassigned) [Example 128]
1.42 nM | COc1cc2c(cc1OC(C)C)[C@H](c1ccc(Cl)cc1)N(c1ccc([C@@](C)(O)C3CCN(CCO)CC3)cc1)C(=O)C2 (single isomer, unassigned) [Example 131]
305 nM | COc1cc2c(cc1OC(C)C)[C@H](c1ccc(Cl)cc1)N(c1ccc([C@](C)(O)C34CCC(CC3)C4)cc1)C(=O)C2 (single isomer, unassigned) [Example 140]
25.3 nM | COc1cc2c(cc1OC(C)C)[C@H](c1ccc(Cl)cc1)N(c1ccc([C@](C)(O)C3CCN(CCO)CC3)cc1)C(=O)C2 (single isomer, unassigned) [Example 132]
9.18 nM | COc1cc2c(cc1OC(C)C)[C@H](c1ccc(Cl)cc1)N(c1ccc(C(C)(O)C3CN(C4COC4)C3)cc1)C(=O)C2 (stereo partly drawn) [Example 103, (S)-1-(4-Chloro-phenyl)-2-{4-[1-hydroxy-1-(1-oxetan-3-yl-azetidin-3-yl)-ethyl]-phenyl}-7-isopropoxy-6-methoxy-1,4-dihydro-2H-isoquinolin-3-one]
2.08 nM | COc1cc2c(cc1OC(C)C)[C@H](c1ccc(Cl)cc1)N(c1ccc(C(C)(O)C3CCN(C[C@@H](O)CO)CC3)cc1)C(=O)C2 (stereo partly drawn) [Example 130, (S)-1-(4-Chloro-phenyl)-2-(4-{1-[1-((R)-2,3-dihydroxy-propyl)-piperidin-4-yl]-1-hydroxy-ethyl}-phenyl)-7-isopropoxy-6-methoxy-1,4-dihydro-2H-isoquinolin-3-one]
